Activity calls are given as the source filed them. The calls are words filed in the database; no cut-off is given here.
Key:
[1] = molecular target: 3',5'-cyclic-AMP phosphodiesterase 4D (Homo sapiens, UniProt Q08499); assay: Inhibition of PDE4D2 (86-413) (unknown origin) expressed in Escherichia coli BL21 assessed as using [3H]-cAMP as substrate measured for 15 mins by liquid scintillation counting analysis
[2] = molecular target: Dual specificity calcium/calmodulin-dependent 3',5'-cyclic nucleotide phosphodiesterase 1C (Homo sapiens, UniProt Q14123); assay: Inhibition of PDE1C (147-531) (unknown origin) expressed in Escherichia coli BL21 assessed as using [3H]-cAMP as substrate measured for 15 mins by liquid scintillation counting analysis
Dual specificity calcium/calmodulin-dependent 3',5'-cyclic nucleotide phosphodiesterase 1C, sequence (Q14123 whole entry): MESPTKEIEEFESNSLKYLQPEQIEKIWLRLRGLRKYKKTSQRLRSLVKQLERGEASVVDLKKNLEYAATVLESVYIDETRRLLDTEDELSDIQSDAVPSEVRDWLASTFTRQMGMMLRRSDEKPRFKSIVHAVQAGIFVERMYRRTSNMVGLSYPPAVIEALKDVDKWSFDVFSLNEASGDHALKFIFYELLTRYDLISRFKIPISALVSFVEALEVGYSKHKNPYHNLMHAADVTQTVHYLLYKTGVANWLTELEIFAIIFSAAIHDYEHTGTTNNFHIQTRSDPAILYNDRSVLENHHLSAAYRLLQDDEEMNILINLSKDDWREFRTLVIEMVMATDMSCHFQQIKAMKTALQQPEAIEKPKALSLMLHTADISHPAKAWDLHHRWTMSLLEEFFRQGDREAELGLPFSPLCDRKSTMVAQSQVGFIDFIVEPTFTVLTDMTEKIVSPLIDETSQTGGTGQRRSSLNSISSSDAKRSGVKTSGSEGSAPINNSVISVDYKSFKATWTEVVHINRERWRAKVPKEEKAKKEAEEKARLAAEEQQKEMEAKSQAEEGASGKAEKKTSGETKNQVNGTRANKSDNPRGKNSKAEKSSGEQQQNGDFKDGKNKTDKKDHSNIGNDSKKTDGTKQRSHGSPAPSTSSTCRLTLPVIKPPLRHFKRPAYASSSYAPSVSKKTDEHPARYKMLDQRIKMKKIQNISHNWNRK

[3] = molecular target: cGMP-dependent 3',5'-cyclic phosphodiesterase (Homo sapiens, UniProt O00408); assay: Inhibition of PDE2A (580-919) (unknown origin) expressed in Escherichia coli BL21 assessed as using [3H]-cAMP as substrate measured for 15 mins by liquid scintillation counting analysis
cGMP-dependent 3',5'-cyclic phosphodiesterase, sequence (O00408 whole entry): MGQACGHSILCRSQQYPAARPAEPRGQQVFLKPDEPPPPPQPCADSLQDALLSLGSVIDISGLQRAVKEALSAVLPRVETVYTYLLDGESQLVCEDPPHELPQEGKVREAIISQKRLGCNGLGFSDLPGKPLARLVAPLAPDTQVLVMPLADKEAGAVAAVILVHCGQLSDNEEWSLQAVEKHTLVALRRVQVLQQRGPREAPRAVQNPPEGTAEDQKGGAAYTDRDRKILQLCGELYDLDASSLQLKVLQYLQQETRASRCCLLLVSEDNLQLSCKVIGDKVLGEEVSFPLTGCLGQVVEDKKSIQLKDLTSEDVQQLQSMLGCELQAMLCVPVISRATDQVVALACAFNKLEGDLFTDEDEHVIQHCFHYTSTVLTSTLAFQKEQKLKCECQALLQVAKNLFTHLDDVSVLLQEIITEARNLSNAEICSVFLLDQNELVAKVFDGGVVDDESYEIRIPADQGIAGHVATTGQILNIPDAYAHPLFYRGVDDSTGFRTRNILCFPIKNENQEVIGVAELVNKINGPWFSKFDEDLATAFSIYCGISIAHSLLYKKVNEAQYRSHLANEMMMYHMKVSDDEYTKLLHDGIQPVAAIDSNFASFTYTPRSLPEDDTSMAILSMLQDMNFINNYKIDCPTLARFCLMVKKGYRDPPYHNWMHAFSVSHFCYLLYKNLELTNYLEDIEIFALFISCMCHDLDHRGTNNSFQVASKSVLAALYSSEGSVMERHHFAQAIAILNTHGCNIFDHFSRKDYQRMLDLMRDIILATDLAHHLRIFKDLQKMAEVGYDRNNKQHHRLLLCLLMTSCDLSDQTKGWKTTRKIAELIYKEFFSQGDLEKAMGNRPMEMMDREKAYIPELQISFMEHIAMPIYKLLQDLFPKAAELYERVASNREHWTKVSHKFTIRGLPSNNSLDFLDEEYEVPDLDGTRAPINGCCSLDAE

[4] = molecular target: High affinity 3',5'-cyclic-AMP phosphodiesterase 7A (Homo sapiens, UniProt Q13946); assay: Inhibition of PDE7A1 (130-482) (unknown origin) expressed in Escherichia coli BL21 assessed as using [3H]-cAMP as substrate measured for 15 mins by liquid scintillation counting analysis
[5] = molecular target: High affinity cGMP-specific 3',5'-cyclic phosphodiesterase 9A (Homo sapiens, UniProt O76083); assay: Inhibition of PDE9A2 (181-506) (unknown origin) expressed in Escherichia coli BL21 assessed as using […] as substrate measured for 15 mins by liquid scintillation counting analysis
[6] = molecular target: cAMP and cAMP-inhibited cGMP 3',5'-cyclic phosphodiesterase 10A (Homo sapiens, UniProt Q9Y233); assay: Inhibition of PDE10A2 (449-770) (unknown origin) expressed in Escherichia coli BL21 assessed as using [3H]-cAMP as substrate measured for 15 mins by liquid scintillation counting analysis
cAMP and cAMP-inhibited cGMP 3',5'-cyclic phosphodiesterase 10A, sequence (Q9Y233 whole entry): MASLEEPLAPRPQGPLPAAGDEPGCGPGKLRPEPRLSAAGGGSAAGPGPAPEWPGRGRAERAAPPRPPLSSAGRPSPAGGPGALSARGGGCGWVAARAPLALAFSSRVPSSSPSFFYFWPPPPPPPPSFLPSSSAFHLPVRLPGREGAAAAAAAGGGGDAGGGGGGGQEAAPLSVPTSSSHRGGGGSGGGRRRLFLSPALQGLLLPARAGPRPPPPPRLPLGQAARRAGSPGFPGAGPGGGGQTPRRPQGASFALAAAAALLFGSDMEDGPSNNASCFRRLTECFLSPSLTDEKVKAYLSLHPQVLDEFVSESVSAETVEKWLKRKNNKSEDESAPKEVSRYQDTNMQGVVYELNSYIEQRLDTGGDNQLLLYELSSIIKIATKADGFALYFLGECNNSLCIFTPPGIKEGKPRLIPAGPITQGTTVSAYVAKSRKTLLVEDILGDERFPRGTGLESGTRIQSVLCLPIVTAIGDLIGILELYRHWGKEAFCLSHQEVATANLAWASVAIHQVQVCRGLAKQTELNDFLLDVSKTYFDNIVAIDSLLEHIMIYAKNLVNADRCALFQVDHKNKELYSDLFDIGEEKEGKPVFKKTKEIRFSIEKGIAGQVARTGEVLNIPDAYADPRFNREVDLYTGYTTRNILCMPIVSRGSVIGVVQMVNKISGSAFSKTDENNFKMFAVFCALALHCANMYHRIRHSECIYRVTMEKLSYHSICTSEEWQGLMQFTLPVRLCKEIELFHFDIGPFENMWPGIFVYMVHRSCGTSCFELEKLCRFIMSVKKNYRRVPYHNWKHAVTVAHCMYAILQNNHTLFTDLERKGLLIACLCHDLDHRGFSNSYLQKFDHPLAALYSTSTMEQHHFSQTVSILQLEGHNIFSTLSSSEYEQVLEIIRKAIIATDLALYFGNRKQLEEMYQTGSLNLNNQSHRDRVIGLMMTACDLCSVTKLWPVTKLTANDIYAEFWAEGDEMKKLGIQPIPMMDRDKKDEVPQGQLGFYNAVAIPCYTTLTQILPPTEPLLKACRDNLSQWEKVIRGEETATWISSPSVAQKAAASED

[7] = Half life in Sprague-Dawley rat at 5 mg/kg, po; format: ADME, organism-based; details: in vivo
[8] = Half life in Sprague-Dawley rat at10 mg/kg, po; format: ADME, organism-based; details: in vivo, dose 10 mg/kg
[9] = Tmax in Sprague-Dawley rat at 5 mg/kg, po; format: ADME, organism-based; details: in vivo
[10] = Cmax in Sprague-Dawley rat at 10 mg/kg, po; format: ADME, organism-based; design: route oral, dose 10 mg/kg; details: in vivo
[11] = AUC (0 to t) in Sprague-Dawley rat at 5 mg/kg, po; format: ADME, organism-based; design: dose 5 mg/kg; details: in vivo
[12] = Metabolic stability in rat liver microsomes assessed as half life; format: ADME, Microsome
[13] = molecular target: Voltage-gated inwardly rectifying potassium channel KCNH2 (Homo sapiens, UniProt Q12809); assay: Inhibition of human ERG
Cytochrome P450 1A2 = molecular target: T1, Cytochrome P450 1A2 (Homo sapiens, UniProt P05177); assay: Inhibition of human hepatic CYP1A2; format: ADME, tissue-based, Liver
T1 sequence (P05177 whole entry): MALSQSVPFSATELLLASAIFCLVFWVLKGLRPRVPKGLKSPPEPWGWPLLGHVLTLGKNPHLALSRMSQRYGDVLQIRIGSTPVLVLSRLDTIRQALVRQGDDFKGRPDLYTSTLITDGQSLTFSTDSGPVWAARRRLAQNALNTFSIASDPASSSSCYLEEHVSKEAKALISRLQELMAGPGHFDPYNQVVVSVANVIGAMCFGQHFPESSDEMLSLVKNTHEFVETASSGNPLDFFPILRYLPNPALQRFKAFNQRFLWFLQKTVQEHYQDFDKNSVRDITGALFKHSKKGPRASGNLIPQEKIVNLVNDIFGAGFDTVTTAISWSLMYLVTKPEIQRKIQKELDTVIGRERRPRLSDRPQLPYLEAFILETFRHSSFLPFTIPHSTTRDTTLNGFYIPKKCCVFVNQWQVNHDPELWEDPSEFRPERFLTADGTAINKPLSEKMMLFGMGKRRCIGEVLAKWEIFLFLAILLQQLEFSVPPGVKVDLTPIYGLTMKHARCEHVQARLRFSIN

Cytochrome P450 2B6 = molecular target: T2, Cytochrome P450 2B6 (Homo sapiens, UniProt P20813); assay: Inhibition of human hepatic CYP2B6; format: ADME, tissue-based, Liver
T2 sequence (P20813 whole entry): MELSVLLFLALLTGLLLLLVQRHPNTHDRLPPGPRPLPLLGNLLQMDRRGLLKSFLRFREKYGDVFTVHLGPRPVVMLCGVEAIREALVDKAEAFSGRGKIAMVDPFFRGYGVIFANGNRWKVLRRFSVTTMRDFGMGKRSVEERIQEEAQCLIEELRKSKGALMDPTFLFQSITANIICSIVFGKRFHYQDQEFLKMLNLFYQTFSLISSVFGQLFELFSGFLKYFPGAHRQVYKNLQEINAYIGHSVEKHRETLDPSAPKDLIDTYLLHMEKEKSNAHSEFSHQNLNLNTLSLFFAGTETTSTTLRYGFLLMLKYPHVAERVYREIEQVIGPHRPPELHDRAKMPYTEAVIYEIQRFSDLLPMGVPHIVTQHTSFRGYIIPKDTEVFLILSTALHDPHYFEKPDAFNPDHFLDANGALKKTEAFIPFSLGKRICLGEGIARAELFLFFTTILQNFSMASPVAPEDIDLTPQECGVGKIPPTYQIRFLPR

Cytochrome P450 2D6 = Cytochrome P450 2D6 (Homo sapiens, UniProt P10635); assay: Inhibition of human hepatic CYP2D6; format: ADME, tissue-based, Liver
Cytochrome P450 2D6, sequence (P10635 whole entry): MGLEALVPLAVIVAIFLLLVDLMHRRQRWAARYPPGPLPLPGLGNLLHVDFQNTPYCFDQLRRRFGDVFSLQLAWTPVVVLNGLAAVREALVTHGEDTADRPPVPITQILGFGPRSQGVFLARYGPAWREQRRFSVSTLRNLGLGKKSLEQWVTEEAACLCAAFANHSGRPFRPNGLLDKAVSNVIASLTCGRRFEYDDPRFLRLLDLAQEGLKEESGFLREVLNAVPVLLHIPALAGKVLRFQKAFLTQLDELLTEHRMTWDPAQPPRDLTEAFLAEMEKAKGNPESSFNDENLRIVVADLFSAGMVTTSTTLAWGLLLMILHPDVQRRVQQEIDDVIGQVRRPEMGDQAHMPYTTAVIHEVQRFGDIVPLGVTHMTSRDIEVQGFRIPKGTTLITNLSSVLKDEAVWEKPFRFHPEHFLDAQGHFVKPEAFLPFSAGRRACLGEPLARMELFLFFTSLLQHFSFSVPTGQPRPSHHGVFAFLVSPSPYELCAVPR

Cytochrome P450 3A4 = Cytochrome P450 3A4 (Homo sapiens, UniProt P08684); assay: Inhibition of human hepatic CYP3A4; format: ADME, tissue-based, Liver
Cytochrome P450 3A4, sequence (P08684 whole entry): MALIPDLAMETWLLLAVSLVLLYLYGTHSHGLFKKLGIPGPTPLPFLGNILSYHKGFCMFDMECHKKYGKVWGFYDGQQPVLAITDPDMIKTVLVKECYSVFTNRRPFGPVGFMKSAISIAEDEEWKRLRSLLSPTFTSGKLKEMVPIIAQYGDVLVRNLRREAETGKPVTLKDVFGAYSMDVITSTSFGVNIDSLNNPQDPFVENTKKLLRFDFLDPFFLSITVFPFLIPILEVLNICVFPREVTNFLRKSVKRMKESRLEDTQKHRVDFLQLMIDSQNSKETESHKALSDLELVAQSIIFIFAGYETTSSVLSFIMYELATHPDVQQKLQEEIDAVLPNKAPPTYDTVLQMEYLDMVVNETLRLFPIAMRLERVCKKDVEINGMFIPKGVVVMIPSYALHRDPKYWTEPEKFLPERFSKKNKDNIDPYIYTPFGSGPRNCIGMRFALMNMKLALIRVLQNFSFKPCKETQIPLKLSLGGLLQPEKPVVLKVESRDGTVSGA

Cytochrome P450 2C9 = Cytochrome P450 2C9 (Homo sapiens, UniProt P11712); assay: Inhibition of human hepatic CYP2C9; format: ADME, tissue-based, Liver
Cytochrome P450 2C9, sequence (P11712 whole entry): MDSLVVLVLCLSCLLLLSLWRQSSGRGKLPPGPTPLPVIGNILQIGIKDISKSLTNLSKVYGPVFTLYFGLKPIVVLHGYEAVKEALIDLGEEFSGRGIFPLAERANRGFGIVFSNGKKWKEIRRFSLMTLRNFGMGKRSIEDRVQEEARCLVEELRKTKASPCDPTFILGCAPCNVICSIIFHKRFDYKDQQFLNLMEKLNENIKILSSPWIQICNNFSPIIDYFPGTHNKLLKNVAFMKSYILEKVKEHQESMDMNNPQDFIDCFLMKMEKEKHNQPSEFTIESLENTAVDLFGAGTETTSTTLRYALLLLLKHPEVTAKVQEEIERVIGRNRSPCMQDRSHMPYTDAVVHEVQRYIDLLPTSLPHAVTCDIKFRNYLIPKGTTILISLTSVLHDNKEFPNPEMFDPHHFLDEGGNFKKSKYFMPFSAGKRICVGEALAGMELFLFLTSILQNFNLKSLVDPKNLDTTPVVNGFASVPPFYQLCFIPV

[14] = Toxicity in mouse assessed as change in body weight at 1.5 g/Kg, po; details: in vivo, 1500 mg/kg
[15] = Toxicity in dog assessed as emesis at 10 mg/kg, po; format: organism-based, Canis lupus familiaris; details: in vivo
Rattus norvegicus [16] = assay: Anti-idiopathic pulmonary fibrotic activity in bleomycin-induced Sprague-Dawley rat model assessed as reversal of mid-expiratory flow at 10 mg/kg, po treated for 28 consecutive days relative to control; format: functional, organism-based
Rattus norvegicus [17] = assay: Anti-idiopathic pulmonary fibrotic activity in bleomycin-induced Sprague-Dawley rat model assessed as reversal of peak expiratory flow at 10 mg/kg, po treated for 28 consecutive days relative to control; format: functional, organism-based
Rattus norvegicus [18] = assay: Anti-idiopathic pulmonary fibrotic activity in bleomycin-induced Sprague-Dawley rat model assessed as prevention of structural damage of lungs at 10 mg/kg, po treated for 28 consecutive days by Hematoxylin and eosin staining based assay relative to control; format: functional, organism-based
Rattus norvegicus [19] = assay: Anti-idiopathic pulmonary fibrotic activity in bleomycin-induced Sprague-Dawley rat model assessed as inhibition of collagen deposition around trachea and cell hyperplasia at 10 mg/kg, po treated for 28 consecutive days by Hematoxylin and eosin staining based assay relative to control; format: functional
A549 [20] = assay: Anti-idiopathic pulmonary fibrotic activity in human A549 cells assessed as reduction in TGF-beta-induced N-cadherin expression measured after 48 hrs by Western blot analysis; format: functional, cell-based; details: dose 10-20 µM
A549 [21] = assay: Anti-idiopathic pulmonary fibrotic activity in human A549 cells assessed as reduction in TGF-beta-induced vimentin expression measured after 48 hrs by Western blot analysis; format: functional, cell-based; details: dose 10-20 µM
A549 [22] = assay: Anti-idiopathic pulmonary fibrotic activity in human A549 cells assessed as reduction in TGF-beta-induced fibronectin expression measured after 48 hrs by Western blot analysis; format: functional, cell-based; details: dose 10-20 µM

3',5'-cyclic-AMP phosphodiesterase 4D, sequence (Q08499 whole entry): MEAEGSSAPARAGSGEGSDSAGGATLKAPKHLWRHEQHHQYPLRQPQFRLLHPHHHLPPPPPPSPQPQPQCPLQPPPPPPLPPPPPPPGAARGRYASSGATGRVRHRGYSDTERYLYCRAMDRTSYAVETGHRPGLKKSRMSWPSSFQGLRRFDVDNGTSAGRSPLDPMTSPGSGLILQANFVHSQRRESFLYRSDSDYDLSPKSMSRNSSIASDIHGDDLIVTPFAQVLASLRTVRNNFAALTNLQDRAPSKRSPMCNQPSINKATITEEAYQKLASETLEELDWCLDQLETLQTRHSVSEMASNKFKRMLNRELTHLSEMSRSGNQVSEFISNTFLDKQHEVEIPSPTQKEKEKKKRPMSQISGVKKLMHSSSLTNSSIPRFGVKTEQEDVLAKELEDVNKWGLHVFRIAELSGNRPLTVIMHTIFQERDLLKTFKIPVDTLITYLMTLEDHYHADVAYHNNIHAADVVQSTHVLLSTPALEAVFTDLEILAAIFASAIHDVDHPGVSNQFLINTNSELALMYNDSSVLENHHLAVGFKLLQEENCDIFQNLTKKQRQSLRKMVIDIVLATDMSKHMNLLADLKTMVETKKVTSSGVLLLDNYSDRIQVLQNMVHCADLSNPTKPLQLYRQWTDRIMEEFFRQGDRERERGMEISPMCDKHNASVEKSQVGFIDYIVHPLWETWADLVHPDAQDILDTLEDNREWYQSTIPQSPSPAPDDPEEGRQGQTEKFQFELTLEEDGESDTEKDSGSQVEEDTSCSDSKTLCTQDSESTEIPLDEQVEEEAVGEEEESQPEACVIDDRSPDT

Compound: COc1c(OCc2ccc(F)cc2)cc2oc3cc4c(c(OC/C=C/C(=O)O)c3c(=O)c2c1CC=C(C)C)C=CC(C)(C)O4
- IC50 [1]: 15 nM
- IC50 [2]: 440 nM
- IC50 [3]: 940 nM
- IC50 [4]: 298 nM
- IC50 [5]: > 10000 nM
- IC50 [6]: 260 nM
- half-life [7]: 1.55 h
- half-life [8]: 1.02 h
- Tmax [9]: 1 h
- Cmax [10]: 1070 ng/mL
- AUC(0-t) [11]: 8420 ng·h/mL
- half-life [12]: 12.2 h
- IC50 [13]: > 40000 nM
- IC50 (Cytochrome P450 1A2): > 25000 nM
- IC50 (Cytochrome P450 2B6): > 25000 nM
- IC50 (Cytochrome P450 2D6): > 25000 nM
- IC50 (Cytochrome P450 3A4): > 25000 nM
- IC50 (Cytochrome P450 2C9): 1700 nM
- Activity [14]: Non-Toxic
- Activity [15]: Non-Toxic
- Activity (Rattus norvegicus [16]): Active
- Activity (Rattus norvegicus [17]): Active
- Activity (Rattus norvegicus [18]): Active
- inhibition in vivo at 10 mg/kg (Rattus norvegicus [19]): 100%
- Activity (A549 [20]): Dose-Dependent Effect
- Activity (A549 [21]): Dose-Dependent Effect
- Activity (A549 [22]): Dose-Dependent Effect

— ChEMBL document CHEMBL4831531, “Mangostanin Derivatives as Novel and Orally Active Phosphodiesterase 4 Inhibitors for the Treatment of Idiopathic Pulmonary Fibrosis with Improved Safety” (J Med Chem, 2021)
